Experimental data published in paper PMC12363935, “Unc-51 Like Kinase 3 (ULK3) is essential for autophagy and cell survival in multiple myeloma” (Research Square, 2025).

System: NTC CTRL U266 MM cells
Assay: NTC CTRL U266 in vivo model
Details: 10 mg/kg/day subcutaneously
Source text: Supplementary Figure 7. ULK3 ablation suppresses MM cell growth. A. Immunoblotting for ULK3 expression in parental, NTC CTRL and ULK3 KO U266 cells. Of note, NTC CTRL and ULK3 KO were used for the in vivo ULK3 KO model. Densitometric quantification values are annotated on the blot. B. Mice (n = 20/group) were tail vein injected […]
with 1 x106 NTC CTRL and ULK3 KO U266 MM cells. […]
onset of the disease compared to NTC CTRL . (C) Representative confocal microscopy images of formalin fixed, paraffin embedded tumors (5-micron sections), stained for human mitochondria (hMITO) as a readout of MM cells colocalization. Alexa Fluor Plus 488 goat anti-mouse were used as secondary antibody. (D) MTS showing the inhibitory profile of MA9060 on NTC CTRL and ULK3 KO for U266 cell line. Treatment with MA9060 (0-100 uM) for 48h show reduced activity of MA9060 in ULK3 KO cell lines. E. Mice were divided respectively in two groups, vehicle control (n = 10, β-HCD Captisol) or MA9-060 (n = 10). Treatment started at day 20 (M-F, 10 mg/kg/day subcutaneously). MA9-060 treatment improves overall survival in the NTC CTRL arm (median 41 days post-tumor […]
38 For MA9 therapy efficacy, mice were treated with vehicle (n=10) or MA9 (10 mg/kg/day, 39 subcutaneously, M-F from day 20; n=10) (Supplementary Fig. 7E, F). Survival and toxicity 40 (weight, clinical signs) was monitored. […]

In the case of `Cc1cnc(Nc2ccc(C3CCN(C)CC3)c(F)c2)nc1Nc1ccc(Cl)c(NS(=O)(=O)C(C)(C)C)c1` [MA9060], the “toxicity (weight loss <20%, ruffled hair)” value is reported as “did not show any signs of toxicity” and the median overall survival (NTC CTRL arm, M-F from day 20) is reported as 41 days.
